According to patent publication US20120058158A1, “Sublingual Pharmaceutical Composition Comprising a Neutral Oil” (priority 2009, published 2012):
In brackets after ≈: the same amount, converted by molar mass. Entries after “also recorded” stand apart in the source; their conditions may differ. Counter-ions that a name gives are not always drawn. Like-named read-outs stand apart in the source and are kept apart here.

Assays:
[1] = Solubility enhancement by heat or essential oil (menthol) in Miglyol; type: physicochemical; settings: heat or menthol added (separate solutions)
[2] = Solubility tests in Miglyol 810; settings: Miglyol 810, magnetic stirring; amount and volume per drug as in the block
[3] = Single-dose pharmacokinetic study, artemether sublingual spray vs oral tablets; type: in vivo, human; settings: for λz elimination rate constant, Plasma Artemether / Cmax / Tmax / AUC(0-t) / Vd/F / half-life: n = 16, mean ± SD; for Cmax / Tmax / AUC(0-t) / Vd/F / half-life / bioavailability: male, human, plasma; for AUC(0-t): read-out: AUC0-12, Plasma Artemether; for Vd/F: read-out: V/F apparent volume of distribution, Plasma Artemether; for half-life: read-out: t1/2 elimination half-life, Plasma Artemether (converted); for bioavailability: other: sublingual, ± S.D.
Description: Trials were carried out on healthy male adult human volunteers (16 subjects per cohort), and subject to normal ethical approval. Three single-dose regimes according to the present invention were studied, and compared to a regime using oral-dosed tablets, as follows: Spray formulations of artemether were prepared as detailed above, and administered, on a single occasion, to a group of volunteers by the sublingual route. […] Following administration of each dosage regime, blood samples were taken from the subjects, and plasma concentrations of artemether and its immediate metabolite dihydroartemesinin were determined, in order to compare bioavailability by the two routes.

physchem = settings: oil or lipid
[4] = Repeat-dose artemether sublingual spray study (avoidance of autoinduction); type: in vivo, human; settings: 30 mg artemether sublingual spray single on days 1 and 5, twice daily on days 2, 3 and 4
Description: A similar avoidance of autoinduction is expected with delivery by the transmucosal buccal or nasal route. In confidential trials, volunteers followed the following treatment: A single administration of 30 mg artemether sublingual spray 6 mg/actuation on days 1 and 5 following an overnight fast, and twice daily administrations of 30 mg artemether sublingual spray 3 mg/actuation on days 2, 3, and 4 following a morning or evening meal. Blood samples were collected for pharmacokinetic analysis at the following time points: Day 1: Predose, 0.25, 0.5, 0.75, 1, 1.5, 2, 2.5, 3, 4, 6, 8, and 12 h after dosing. Days 2, 3, and 4: pre morning dose and 0.5, 1, 2 and 4 h after morning dose and pre evening dose and 1 hour after evening dose. Day 5: Predose, 0.25, 0.5, 0.75, 1, 1.5, 2, 2.5, 3, 4, 6, 8, 12 h and 24 h after dosing.

[5] = 15 mg, T1: single sublingual 15 mg Artemether sublingual spray, 3 mg per actuation
[6] = 30 mg, T2: single sublingual 30 mg Artemether sublingual spray, 3 mg per actuation
[7] = 30 mg, T3: single sublingual 30 mg Artemether sublingual spray, 6 mg per actuation
[8] = po, 30 mg, T4: single oral 30 mg Artemether Tablets, 10 mg per Tablet

Compound: CCCC1O[C@@H]2C[C@H]3[C@@H]4CCC5=CC(=O)C=C[C@]5(C)[C@H]4[C@@H](O)C[C@]3(C)[C@]2(C(=O)CO)O1 (stereo partly drawn) [Budesonide]
- solubility in Miglyol with the addition of heat or menthol [1]: appeared to dissolve; also recorded: soluble with the addition of heat or menthol

Compound: C=CCN1CC[C@]23c4c5ccc(O)c4O[C@H]2C(=O)CC[C@@]3(O)[C@H]1C5 [Naloxone]
- solubility in Miglyol [2]: sparingly soluble

Compound: CO[C@H]1O[C@@H]2O[C@@]3(C)CC[C@H]4[C@H](C)CC[C@@H]([C@H]1C)[C@@]24OO3 [Artemether]
- absorption (comparison of AUC0-12), sublingual spray vs oral tablet dosing ([3]; 12 hours following the doses, preliminary results): significant and surprisingly higher absorption
- λz elimination rate constant, Plasma Artemether ([3]; T1: single sublingual 15 mg Artemether sublingual spray, 3 mg per actuation): 1.11 ± 0.40 h⁻¹
- λz elimination rate constant, Plasma Artemether ([3]; T2: single sublingual 30 mg Artemether sublingual spray, 3 mg per actuation): 0.56 ± 0.20 h⁻¹
- λz elimination rate constant, Plasma Artemether ([3]; T3: single sublingual 30 mg Artemether sublingual spray, 6 mg per actuation): 0.59 ± 0.25 h⁻¹
- λz elimination rate constant, Plasma Artemether ([3]; T4: single oral 30 mg Artemether Tablets, 10 mg per Tablet): 0.31 ± 0.15 h⁻¹
- Cmax [3, 5]: 16.1 ± 8.69 ng/mL
- Tmax [3, 5]: 1.7 ± 0.68 h
- AUC(0-t) [3, 5]: 25.9 ± 13.9 ng·h/mL
- Vd/F [3, 5]: 680 ± 330 L
- half-life [3, 5]: 0.72 ± 0.3 h
- Cmax [3, 6]: 32.1 ± 16.4 ng/mL
- Tmax [3, 6]: 1.73 ± 0.82 h
- AUC(0-t) [3, 6]: 76.6 ± 43.1 ng·h/mL
- Vd/F [3, 6]: 1000 ± 550 L
- half-life [3, 6]: 1.39 ± 0.49 h
- Cmax [3, 7]: 35.2 ± 23.9 ng/mL
- Tmax [3, 7]: 1.67 ± 0.77 h
- AUC(0-t) [3, 7]: 71.1 ± 41.1 ng·h/mL
- Vd/F [3, 7]: 1010 ± 490 L
- half-life [3, 7]: 1.4 ± 0.59 h
- bioavailability ([3]; 15 mg, T1 (15 mg sublingual spray, 3 mg/actuation) vs T4 (30 mg oral tablets), read-out: F-value FT1-T4 (relative bioavailability of artemether)): 167 ± 60%
- bioavailability ([3]; 30 mg, T2 (30 mg sublingual spray, 3 mg/actuation) vs T4 (30 mg oral tablets), read-out: F-value FT2-T4 (relative bioavailability of artemether)): 224 ± 92%
- bioavailability ([3]; 30 mg, T3 (30 mg sublingual spray, 6 mg/actuation) vs T4 (30 mg oral tablets), read-out: F-value FT3-T4 (relative bioavailability of artemether)): 209 ± 69%
- Cmax [3, 8]: 10.1 ± 7.19 ng/mL
- Tmax [3, 8]: 1.02 ± 0.86 h
- AUC(0-t) [3, 8]: 34.6 ± 21 ng·h/mL
- Vd/F [3, 8]: 3900 ± 2900 L
- half-life [3, 8]: 3.44 ± 4.26 h

Compound: CCCNC(C)C(=O)Nc1ccccc1C (stereo not drawn) [Prilocaine Base]
- solubility (physchem): ~137 mg/mL (≈ 622 mM)

Compound: COc1cccc(C2(O)CCCCC2CN(C)C)c1 (stereo not drawn) [Tramadol HCl]
- solubility in Miglyol [2]: insoluble

Compound: Oc1ccc2c3c1O[C@H]1[C@@H](O)CC[C@@]4(O)[C@@H](C2)N(CC2CCC2)CC[C@]314 [Nalbuphine HCl]
- solubility in Miglyol [2]: not soluble

Compound: O=C1CC[C@@]2(O)[C@H]3Cc4ccc(O)c5c4[C@@]2(CCN3CC2CC2)[C@H]1O5 [Naltrexone Base]
- solubility in Miglyol [2]: sparingly soluble
- solubility in Miglyol with the addition of heat or menthol [1]: soluble with the addition of heat or menthol

Compound: C[C@H]1[C@@H](O)O[C@@H]2O[C@@]3(C)CC[C@H]4[C@H](C)CC[C@@H]1[C@@]24OO3 [Dihydroartemesinin]
- pharmacokinetic analysis of plasma dihydroartemesinin, day 1 vs day 5 [4]: effectively identical response
